Results as given in patent US20220257642A1, “METHODS AND COMPOSITIONS FOR GENERATING NITRIC OXIDE AND USES THEREOF TO DELIVER NITRIC OXIDE VIA THE RESPIRATORY TRACT” (THIRTY RESPIRATORY LIMITED, priority 2019, published 2022).

Key:
[1] = test system: SARS-CoV-2 clinical isolate; experiment: SARS-CoV-2 virus yield reduction assay in Vero E6 cells; format: cell-based
Experimental: At time 0 hr, Vero E6 cells were infected with virus in presence of the formulation or controls and incubated for 1 hour. After this incubation period the inoculum was removed and the cells were washed. Fresh formulation or controls were then added to the washed cells. At 24 hours post infection, Vero E6 cell supernatants were harvested and titrated, and the virus titration was incubated for 6 days prior to readout to determine any virus yield reduction. Separate tests were performed at four MOIs including 3.0 and 0.3, although only those two MOIs were titrated. The readout was by crystal violet (cell monolayer) staining, followed by CPE scoring.

CCN(CC)CCCC(C)Nc1ccnc2cc(Cl)ccc12 (stereo not shown) [chloroquine, Chloroquine phosphate]
SARS-CoV-2 virus titre ([1]; FIG. 33, Run 1, MOI 3.0, 24 hours): limit of detection
SARS-CoV-2 virus titre ([1]; FIG. 34, Run 2, MOI 3.0 and MOI 0.3, 48 hours): limit of detection

O=C(O)CC(O)(CC(=O)O)C(=O)O [citric acid pH 5.8, citric acid]
Cytotoxicity on the LDH assay (Vero E6 cells): low cytotoxicity
In vitro antiviral action against SARS-CoV-2 ([1]; FIGS. 33 and 34): high in vitro antiviral action
